Measurements as given in US12459876B2, “One-step kit-based synthesis of 2-deoxy-2-[18F]fluoro-D-sorbitol” (The Johns Hopkins University, priority 2020, dated 2025).
Where two headings read alike, the source gives them in different places.

Columns and labels:
[1] = in vivo; cited from earlier work
[2] = human, in vivo; cited from earlier work
E. coli = settings: cited from earlier work
[3] = rat, in vivo; cited from earlier work
K. pneumoniae = settings: intravenous; PET 120 minutes post-tracer injection; n=6; Mann Whitney U test

## OC[C@@H](O)[C@@H](O)[C@H](O)[C@@H]([18F])CO [^18F-FDS, 2-deoxy-2-[^18F]fluoro-D-sorbitol]
[1]
  Route of clearance: predominantly cleared through the kidneys
[2]
  Accumulation in the renal cortex: rapid ^18F-FDS accumulation in the renal cortex with gradual transition to the parenchyma
E. coli; MDR, extended-spectrum β-lactamase producing E. coli strains
  Detection of therapeutic failures: detect therapeutic failures
E. coli; mouse models
  Distinction of infection from sterile inflammation: able to distinguish infection from sterile inflammation
[3]
  Accumulation in the renal cortex: rapid accumulation
  Renal uptake: significantly delayed
K. pneumoniae
  SUVmean, areas of pneumonia compared to unaffected lung: significantly higher
Enterobacterales; patient with Enterobacter aerogenes cellulitis, MIP
  PET signal outside the site of infection (biodistribution): Signal also is noted in the heart (blood pool), liver, kidneys, and the urinary bladder
Enterobacterales; patients, repeat imaging after antibiotic treatments
  Monitoring of antimicrobial response by repeat imaging: able to monitor antimicrobial response
